What follows are compounds tested against human GPBAR1 receptor (Homo sapiens (Human), UniProt Q8TDU6) (assay: functional cAMP assay in CHO-dhfr(minus) cells expressing human GPBAR1 receptors). Conditions: CHO-dhfr(minus) cells expressing human GPBAR1, 30 min at 30° C.
Assay type: cell-based
How it was run: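 CHO-dhfr- cells were transfected with human GPBAR1, and a clone was chosen by cAMP response to lithocholic acid. EC50 values come from the cAMP read-out; specificity was checked in non-transfected CHO cells.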

Sequence of human GPBAR1 receptor (Q8TDU6 whole entry): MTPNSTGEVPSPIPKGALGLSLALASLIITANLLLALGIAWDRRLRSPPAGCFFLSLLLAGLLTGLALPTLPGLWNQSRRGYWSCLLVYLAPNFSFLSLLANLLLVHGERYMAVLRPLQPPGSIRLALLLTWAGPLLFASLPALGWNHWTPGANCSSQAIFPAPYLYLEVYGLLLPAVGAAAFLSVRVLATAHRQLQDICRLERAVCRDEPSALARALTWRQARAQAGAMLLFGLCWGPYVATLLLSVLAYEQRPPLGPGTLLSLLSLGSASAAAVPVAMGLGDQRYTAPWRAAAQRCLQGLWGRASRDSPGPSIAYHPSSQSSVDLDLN

| SMILES | EC50 [nM] |
| --- | --- |
| O=C(c1cc(C(F)(F)F)cc(C(F)(F)F)c1)N(CC(F)F)c1cnccc1-c1ccccc1Cl [Example 116, N-[4-(2-Chloro-phenyl)-pyridin-3-yl]-N-(2,2-difluoro-ethyl)-3,5-bis-trifluoromethyl-benzamide] | 88 |
| CN(C)C(=O)CN(C(=O)c1cc(C(F)(F)F)cc(C(F)(F)F)c1)c1cnccc1-c1ccccc1Cl [Example 118, N-[4-(2-Chloro-phenyl)-pyridin-3-yl]-N-dimethylcarbamoylmethyl-3,5-bis-trifluoromethyl-benzamide] | 2470 |
| Cc1cc(C(=O)N(C)c2cnccc2-c2ccccc2C)cc(Cl)n1 [Example 119, 2-Chloro-6,N-dimethyl-N-(4-o-tolyl-pyridin-3-yl)-isonicotinamide] | 610 |
| Cc1ccccc1-c1ccncc1N(C)C(=O)c1cc(Cl)nc(Cl)c1 [Example 120, 2,6-Dichloro-N-methyl-N-(4-o-tolyl-pyridin-3-yl)-isonicotinamide] | 170 |
| Cc1cc(C)nc(C(=O)N(C)c2cnccc2-c2ccccc2C)c1 [Example 121, 4,6-Dimethyl-pyridine-2-carboxylic acid methyl-(4-o-tolyl-pyridin-3-yl)-amide] | 1920 |
| Cc1cc(Cl)cc(C(=O)N(C)c2cnccc2-c2ccccc2C)n1 [Example 122, 4-Chloro-6-methyl-pyridine-2-carboxylic acid methyl-(4-o-tolyl-pyridin-3-yl)-amide] | 2430 |
| Cc1ccccc1-c1ccncc1N(C)C(=O)c1cc(Cl)cc(Cl)n1 [Example 123, 4,6-Dichloro-pyridine-2-carboxylic acid methyl-(4-o-tolyl-pyridin-3-yl)-amide] | 473 |
| O=C(c1cc(C(F)(F)F)cc(C(F)(F)F)c1)N(c1cnccc1-c1ccccc1Cl)C1CC1 [Example 124, N-[4-(2-Chloro-phenyl)-pyridin-3-yl]-N-cyclopropyl-3,5-bis-trifluoromethyl-benzamide] | 1980 |
| O=C(NCCN(C(=O)c1cc(C(F)(F)F)cc(C(F)(F)F)c1)c1cnccc1-c1ccccc1Cl)OCc1ccccc1 [Example 125, (2-{(3,5-Bis-trifluoromethyl-benzoyl)-[4-(2-chloro-phenyl)-pyridin-3-yl]-amino}-ethyl)-carbamic acid benzyl ester] | 1490 |
| CC(C)N(C(=O)c1cc(C(F)(F)F)cc(C(F)(F)F)c1)c1cnccc1-c1ccccc1Cl [Example 126, N-[4-(2-Chloro-phenyl)-pyridin-3-yl]-N-isopropyl-3,5-bis-trifluoromethyl-benzamide] | 620 |
| Cc1cc(-c2ccccc2C)c(N(C)C(=O)c2cc(C(F)(F)F)cc(C(F)(F)F)c2)cn1 [Example 127, N-Methyl-N-(6-methyl-4-o-tolyl-pyridin-3-yl)-3,5-bis-trifluoromethyl-benzamide] | 75 |
| COc1cc(F)ccc1-c1ccncc1N(C)C(=O)c1cc(F)cc(C(F)(F)F)c1 [Example 129, 3-Fluoro-N-[4-(4-fluoro-2-methoxy-phenyl)-pyridin-3-yl]-N-methyl-5-trifluoromethyl-benzamide] | 76 |
| COc1cc(F)c(F)cc1-c1ccncc1N(C)C(=O)c1cc(F)cc(C(F)(F)F)c1 [Example 130, N-[4-(4,5-Difluoro-2-methoxy-phenyl)-pyridin-3-yl]-3-fluoro-N-methyl-5-trifluoromethyl-benzamide] | 166 |
| COc1cc(F)c(F)cc1-c1ccncc1N(CC(F)(F)F)C(=O)c1cc(F)cc(C(F)(F)F)c1 [Example 132, N-[4-(4,5-Difluoro-2-methoxy-phenyl)-pyridin-3-yl]-3-fluoro-N-(2,2,2-trifluoro-ethyl)-5-trifluoromethyl-benzamide] | 1330 |
| COc1cc(F)ccc1-c1ccncc1N(CC(F)(F)F)C(=O)c1cc(F)cc(C(F)(F)F)c1 [Example 134, 3-Fluoro-N-[4-(4-fluoro-2-methoxy-phenyl)-pyridin-3-yl]-N-(2,2,2-trifluoro-ethyl)-5-trifluoromethyl-benzamide] | 912 |
| COc1ncccc1-c1ccncc1N(CC(F)(F)F)C(=O)c1cc(C(F)(F)F)cc(C(F)(F)F)c1 [Example 135, N-(2-Methoxy-[3,4′]bipyridinyl-3′-yl)-N-(2,2,2-trifluoro-ethyl)-3,5-bis-trifluoromethyl-benzamide] | 91 |
| COc1cc(F)ccc1-c1ccncc1N(CC(F)(F)F)C(=O)c1cc(C(F)(F)F)cc(S(C)(=O)=O)c1 [Example 136, N-[4-(4-Fluoro-2-methoxy-phenyl)-pyridin-3-yl]-3-methanesulfonyl-N-(2,2,2-trifluoro-ethyl)-5-trifluoromethyl-benzamide] | 247 |
| COc1cc(F)c(F)cc1-c1ccncc1N(C)C(=O)c1cc(C(F)(F)F)cc(S(C)(=O)=O)c1 [Example 137, N-[4-(4,5-Difluoro-2-methoxy-phenyl)-pyridin-3-yl]-3-methanesulfonyl-N-methyl-5-trifluoromethyl-benzamide] | 166 |
| COc1cc(F)c(F)cc1-c1ccncc1N(CC(F)(F)F)C(=O)c1cc(C(F)(F)F)cc(S(C)(=O)=O)c1 [Example 139, N-[4-(4,5-Difluoro-2-methoxy-phenyl)-pyridin-3-yl]-3-methanesulfonyl-N-(2,2,2-trifluoro-ethyl)-5-trifluoromethyl-benzamide] | 606 |
| COc1cc(F)c(F)cc1-c1ccncc1N(CC(F)(F)F)C(=O)c1cc(C(F)(F)F)cc(S(=O)(=O)N(C)C)c1 [Example 140, N-[4-(4,5-Difluoro-2-methoxy-phenyl)-pyridin-3-yl]-3-dimethylsulfamoyl-N-(2,2,2-trifluoro-ethyl)-5-trifluoromethyl-benzamide] | 124 |
| COc1ncccc1-c1ccncc1N(CC(F)(F)F)C(=O)c1cc(F)cc(C(F)(F)F)c1 [Example 141, 3-Fluoro-N-(2-methoxy-[3,4′]bipyridinyl-3′-yl)-N-(2,2,2-trifluoro-ethyl)-5-trifluoromethyl-benzamide] | 1660 |
| COc1ncccc1-c1ccncc1N(CC(F)(F)F)C(=O)c1cc(C(F)(F)F)cc(S(C)(=O)=O)c1 [Example 142, 3-Methanesulfonyl-N-(2-methoxy-[3,4′]bipyridinyl-3′-yl)-N-(2,2,2-trifluoro-ethyl)-5-trifluoromethyl-benzamide] | 396 |
| COc1cc(F)c(F)cc1-c1ccncc1N(CC(F)(F)F)C(=O)c1cc(C(F)(F)F)nc(C(F)(F)F)c1 [Example 146, N-[4-(4,5-Difluoro-2-methoxy-phenyl)-pyridin-3-yl]-N-(2,2,2-trifluoro-ethyl)-2,6-bis-trifluoromethyl-isonicotinamide] | 69 |
| Cc1ccccc1-c1ccncc1N(C)C(=O)c1cc(C#N)cc(C(F)(F)F)c1 [Example 149, 3-Cyano-N-methyl-N-(4-o-tolyl-pyridin-3-yl)-5-trifluoromethyl-benzamide] | 242 |

Compounds with a lower EC50, results first:

| EC50 [nM] | SMILES |
| --- | --- |
| 66 | O=C(c1cc(C(F)(F)F)cc(C(F)(F)F)c1)N(CCO)c1cnccc1-c1ccccc1Cl [Example 115, N-[4-(2-Chloro-phenyl)-pyridin-3-yl]-N-(2-hydroxy-ethyl)-3,5-bis-trifluoromethyl-benzamide] |
| 52 | NC(=O)CN(C(=O)c1cc(C(F)(F)F)cc(C(F)(F)F)c1)c1cnccc1-c1ccccc1Cl [Example 117, N-Carbamoylmethyl-N-[4-(2-chloro-phenyl)-pyridin-3-yl]-3,5-bis-trifluoromethyl-benzamide] |
| 42 | COc1cc(F)ccc1-c1ccncc1N(C)C(=O)c1cc(C(F)(F)F)cc(S(C)(=O)=O)c1 [Example 138, N-[4-(4-Fluoro-2-methoxy-phenyl)-pyridin-3-yl]-3-methanesulfonyl-N-methyl-5-trifluoromethyl-benzamide] |
| 39 | COc1cc(F)ccc1-c1ccncc1N(CC(F)(F)F)C(=O)c1cc(C(F)(F)F)cc(S(=O)(=O)N(C)C)c1 [Example 133, 3-Dimethylsulfamoyl-N-[4-(4-fluoro-2-methoxy-phenyl)-pyridin-3-yl]-N-(2,2,2-trifluoro-ethyl)-5-trifluoromethyl-benzamide] |
| 30 | COc1ncccc1-c1ccncc1N(CC(F)(F)F)C(=O)c1cc(C(F)(F)F)nc(C(F)(F)F)c1 [Example 145, N-(2-Methoxy-[3,4′]bipyridinyl-3′-yl)-N-(2,2,2-trifluoro-ethyl)-2,6-bis-trifluoromethyl-isonicotinamide] |
| 29 | Cc1ccccc1-c1ccncc1N(C)C(=O)c1cc(C(F)(F)F)cc(S(=O)(=O)N(C)C)c1 [Example 128, 3-Dimethylsulfamoyl-N-methyl-N-(4-o-tolyl-pyridin-3-yl)-5-trifluoromethyl-benzamide] |
| 22 | COc1cc(F)c(F)cc1-c1ccncc1N(C)C(=O)c1cc(C(F)(F)F)nc(C(F)(F)F)c1 [Example 144, N-[4-(4,5-Difluoro-2-methoxy-phenyl)-pyridin-3-yl]-N-methyl-2,6-bis-trifluoromethyl-isonicotinamide] |
| 19 | Cc1ccccc1-c1ccncc1N(C)C(=O)c1cc(C(F)(F)F)nc(C(F)(F)F)c1 [Example 131, N-Methyl-N-(4-o-tolyl-pyridin-3-yl)-2,6-bis-trifluoromethyl-isonicotinamide] |
| 18 | COc1cc(F)ccc1-c1ccncc1N(CC(F)(F)F)C(=O)c1cc(C(F)(F)F)nc(C(F)(F)F)c1 [Example 147, N-[4-(4-Fluoro-2-methoxy-phenyl)-pyridin-3-yl]-N-(2,2,2-trifluoro-ethyl)-2,6-bis-trifluoromethyl-isonicotinamide] |
| 12 | COc1cc(F)ccc1-c1ccncc1N(C)C(=O)c1cc(C(F)(F)F)cc(S(=O)(=O)N(C)C)c1 [Example 143, 3-Dimethylsulfamoyl-N-[4-(4-fluoro-2-methoxy-phenyl)-pyridin-3-yl]-N-methyl-5-trifluoromethyl-benzamide] |
| 6 | COc1cc(F)ccc1-c1ccncc1N(C)C(=O)c1cc(C(F)(F)F)nc(C(F)(F)F)c1 [Example 148, N-[4-(4-Fluoro-2-methoxy-phenyl)-pyridin-3-yl]-N-methyl-2,6-bis-trifluoro methyl-isonicotinamide] |

Reference: patent US10385022B2, “3-amino-pyridines as GPBAR1 agonists” (HOFFMANN-LA ROCHE INC., priority 2011, dated 2019)
